System: spontaneous melanoma miniswine model
Assay: Pre-operative PET-CT SLN mapping in spontaneous melanoma miniswine model
Type: in vivo, Sinclair miniature swine
Text: FIG. 6 depicts imaging of metastatic disease in a spontaneous melanoma miniswine model, in accordance with an embodiment of the present disclosure. ^124I-cRGDY-PEG-C dots and combined PET-optical imaging approaches can evaluate SLN mapping in a spontaneous melanoma miniswine model (Misfeldt, Vet. Immunol. Immunopathol. (1994); Oxenhandler, Am. J. Pathol. (1979); Millikan, J. Invest. Dermatol. (1974)) (Sinclair miniature swine, Sinclair Research Center). Image-guided metastatic disease detection, staging, and the assessment of differential tumor burden in SLN/s were evaluated in 4-10 kg miniswine (n=5) in conjunction with correlative histopathology. […]
FIGS. 7A-7I depict image-guided SLN Mapping in a spontaneous melanoma miniswine model using pre-operative PET imaging, in accordance with an embodiment of the present disclosure. These studies were expanded to include optical imaging using the portable ArteMIS™ fluorescence camera system, along with radiodetection using the gamma probe, for performing real-time assessments of the draining tumor lymphatics and nodal metastases. […] FIG. 7I depicts radioactivity levels of the primary tumor, SLN (in vivo, ex vivo), and a site remote from the primary tumor (i.e., background), using a handheld gamma probe. […]

## 2-deoxy-2-[^18F]fluoro-D-glucose [^18F-FDG]
Miniswine with granulomatous inflammatory changes (n=3), PET-CT
  discrimination of metastatic disease from inflammatory processes: failed to detect metastatic disease
Representative miniswine, neck nodes, dynamic imaging over 1 hour
  detection of nodal metastases on PET-CT: clear absence of nodal metastases
